# Legend:
# [1] = biological target: T1, receptor 5.24 (Carassius auratus, UniProt Q9PW88); assay: biochemical; assay type: binding
# T1 construct: The receptor 5.24 full length cDNA detects 1-2 bands in genomic DNA blots; expressed in transfected cells; host or cells: HEK 293 cells expressing SV40 large T antigen (293-TSA)
# T1 sequence (Q9PW88 25-877): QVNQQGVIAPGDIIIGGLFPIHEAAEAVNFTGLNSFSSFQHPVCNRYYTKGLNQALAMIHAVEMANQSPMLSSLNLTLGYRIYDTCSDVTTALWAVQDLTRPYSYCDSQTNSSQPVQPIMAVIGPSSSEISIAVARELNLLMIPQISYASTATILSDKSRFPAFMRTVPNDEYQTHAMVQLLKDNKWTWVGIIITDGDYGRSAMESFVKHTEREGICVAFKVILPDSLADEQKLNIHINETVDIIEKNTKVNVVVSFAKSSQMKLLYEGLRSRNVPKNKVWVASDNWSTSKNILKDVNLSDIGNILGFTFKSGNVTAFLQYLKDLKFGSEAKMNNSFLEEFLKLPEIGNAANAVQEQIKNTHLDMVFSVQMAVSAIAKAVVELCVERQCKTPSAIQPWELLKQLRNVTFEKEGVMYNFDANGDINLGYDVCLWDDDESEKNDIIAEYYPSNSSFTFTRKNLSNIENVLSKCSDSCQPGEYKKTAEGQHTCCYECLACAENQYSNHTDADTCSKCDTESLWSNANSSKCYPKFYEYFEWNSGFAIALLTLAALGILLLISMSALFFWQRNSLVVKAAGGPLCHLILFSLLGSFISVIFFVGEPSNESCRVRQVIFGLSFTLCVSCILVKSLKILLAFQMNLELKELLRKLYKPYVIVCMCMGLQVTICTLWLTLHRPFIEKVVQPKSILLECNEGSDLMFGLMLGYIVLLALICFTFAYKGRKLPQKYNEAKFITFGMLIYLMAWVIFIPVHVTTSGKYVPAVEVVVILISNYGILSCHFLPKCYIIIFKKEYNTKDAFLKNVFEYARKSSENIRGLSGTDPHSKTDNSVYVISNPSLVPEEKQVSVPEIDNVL
# Procedure: Structure-Activity Properties of Compounds Interacting with the Cloned Goldfish Amino Acid Odorant Receptor. An understanding of how odorant receptors are used to encode olfactory information requires a characterization of the odorant specificities of individual receptor types. We therefore wished to determine the relative specificity of receptor 5.24 for structurally related ligands. […] Briefly, 3H-arginine binding to membranes from receptor 5.24-expressing HEK 293 cells was assayed in the absence or presence of varying concentrations of competitor ligands.
# Mammalian Cell Culture and DNA Transfections. For cell transfections, the receptor 5.24 cDNA insert was subcloned into two expression vectors: CMVI, which utilizes a human cytomegalovirus (CMV) immediate early promoter-enhancer plus the CMV intron A sequence to drive expression, and 608RX-2.2L, which is similar to CMVI except the cDNA insert is followed by an internal ribosome entry site (IRES)—enhanced green fluorescent protein (EGFP) coding sequence; 608RX-2.2L also contains a puromycin resistance gene. For transient assays, HEK 293 cells expressing the SV40 large T antigen (293 TSA cells) were transfected with the CMVI-receptor 5.24 or CMVI control plasmid using lipofectamine (Life Technologies) and harvested at 48 hours for membrane preparations. For stable cell lines, 293-TSA cells were transfected with the 608RX-2.2L-receptor 5.24 plasmid or a control 608RX-2.2L plasmid and selected in puromycin. Colonies showing high levels of EGFP fluorescence (as judged by epifluorescence microscopy) were picked, expanded, and screened for 3H-L-arginine binding (see below).
# Membrane Preparations and Ligand Binding Assays. Membranes for ligand binding assays were prepared by washing confluent cells three times with phosphate buffered saline (PBS), detaching cells with a PBS-based enzyme-free dissociation solution, and resuspending cells in ice-cold 5.0 mM Hepes, pH 7.4, 1.0 mM EDTA, 1.0 μg/ml leupeptin, 0.5 mM PMSF. All subsequent manipulations were performed on ice. After a 30 min incubation, the cell suspension was homogenized and centrifuged at 100,000×g for 30 min. Cell membrane pellets were washed twice by resuspension and centrifugation in binding buffer (20 mM Hepes, pH 7.4, 1.0 mM EDTA, 2.0 mM MgCl2, 1.0 μg/ml leupeptin, 0.5 mM PMSF), resuspended in binding buffer, and frozen at −80° C.
# Saturation binding assays were performed using 20-25 μg of membrane protein in a final volume of 100 μl binding buffer and increasing concentrations of [2,3-3H] L-arginine (specific activity=40 Ci/mmol; Dupont NEN). Non-specific binding was measured in the presence of 500 μM unlabeled L-arginine. Competition assays were performed with 500 nM [2,3-3H] L-arginine and increasing concentrations of competitor ligands. All incubations were performed at 4° C. for 60 min and terminated by rapid filtration through Whatman GF/C filters pretreated with ice cold 0.1% polyethyleneimine. Filters were washed three times with 4.0 ml ice cold 20 mM Hepes, pH 7.4, and retained radioactivity was measured by scintillation counting.
# [2] = biological target: T1, receptor 5.24; assay: IP3 accumulation in receptor 5.24-expressing HEK 293 cells; assay type: cell-based, goldfish; details: varying concentrations
# From the text: High-Affinity Binding of Radiolabeled L-Arginine to the Cloned Goldfish Odorant Receptor. To determine the affinity of the cloned goldfish amino acid receptor for basic amino acids, we characterized the ligand-receptor interaction by radiolabeled ligand binding to receptors expressed in mammalian cells. Human embryonic kidney (HEK) 293 cells were transfected with expression plasmids containing the receptor 5.24 cDNA insert. […] We next wished to determine what second messenger pathway receptor 5.24 couples to in HEK 293 cells. Control cells or cells expressing receptor 5.24 were exposed to varying concentrations of arginine and assayed for the accumulation of IP3 and cAMP.
# IP3 and cAMP Measurements. For measurements of IP3 and cAMP, cell lines 5.24-20 and 2.2-9 (negative control) were plated at densities of 3.5×10^5 cells/well in 24 well plates and incubated overnight in DMEM containing 10% FBS. All subsequent manipulations prior to reaction termination were performed at 37° C. in 5% CO2. […] IP3 levels were determined by a radioreceptor competition assay (Dupont NEN). For cAMP measurements, after the 3 hour amino acid-free preincubation cells were washed once with PBS, preincubated for 15 min in PBS containing 0.5 mM IBMX, and exposed to odorants in 400 μl PBS/0.5 mM IBMX for 30 min. cAMP levels were determined by radioimmunoassay (DuPont NEN).
compound,measurement,setting,value
N=C(N)NCCC[C@H](N)C(=O)O [L-Arginine],Ki,[1],80 nM
same,"binding to receptor 5.24, in words",[1]; comparative binding studies,highest affinities
same,"IP3 accumulation, in words",[2],specific increase in IP3
